Reference: US9598398B2, “Heterocyclic compound” (TAKEDA PHARMACEUTICAL COMPANY LIMITED, priority 2013, dated 2017)

Key:
human CH24H = biological target: T1, human CH24H (Homo sapiens, UniProt Q9Y6A2); assay: Measurement of CH24H inhibitory activity (24-HC produced from [14C] cholesterol by human CH24H lysate); assay type: biochemical; settings: test compound 1 μM, [14C] cholesterol 15 μM, 37° C., 5 hr, read-out: Inhibitory Rate in 1 μM (%)
T1 construct: Using Full-Length Mammalian Gene Collection No. 4819975 (Invitrogen) as a template; made in house; host or cells: FreeStyle 293-F cells, transient transfection with pcDNA3.1(+)/hCH24H; crude lysate supernatant
T1 sequence (Q9Y6A2 whole entry): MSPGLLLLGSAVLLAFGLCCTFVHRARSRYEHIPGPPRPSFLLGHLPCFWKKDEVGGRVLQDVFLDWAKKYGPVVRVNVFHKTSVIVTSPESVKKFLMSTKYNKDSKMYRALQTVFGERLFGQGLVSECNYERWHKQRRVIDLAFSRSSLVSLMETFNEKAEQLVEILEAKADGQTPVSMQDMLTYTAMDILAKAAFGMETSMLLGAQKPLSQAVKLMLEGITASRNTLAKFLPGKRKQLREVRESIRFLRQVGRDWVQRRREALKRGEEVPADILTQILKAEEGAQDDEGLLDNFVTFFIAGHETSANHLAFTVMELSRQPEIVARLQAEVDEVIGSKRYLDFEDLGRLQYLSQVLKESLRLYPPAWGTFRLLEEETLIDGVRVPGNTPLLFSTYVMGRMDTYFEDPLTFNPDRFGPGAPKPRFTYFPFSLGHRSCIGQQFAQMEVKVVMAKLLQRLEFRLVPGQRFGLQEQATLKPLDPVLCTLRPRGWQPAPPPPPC
Protocol: A plasmid DNA for expressing human CH24H in a FreeStyle 293 cell was produced as follows. Using Full-Length Mammalian Gene Collection No. 4819975 (Invitrogen) as a template, and the following two kinds of synthesized DNAs:
PCR was performed to amplify 91-1625 bp region of human CH24H (BCO22539). The obtained fragment was cloned using TOPO TA Cloning Kit (Invitrogen). The obtained fragment was subcloned to pcDNA3.1(+) digested with BamHI and XhoI to give a plasmid DNA for human CH24H expression (pcDNA3.1(+)/hCH24H).
The expression of human CH24H was performed using FreeStyle 293 Expression System (Invitrogen). According to the manual attached to FreeStyle 293 Expression System and using the plasmid DNA for human CH24H expression (pcDNA3.1(+)/hCH24H) constructed in Experimental Example 1, a transient expression using FreeStyle 293-F cell was performed. After transfection, the cells were cultured at 37° C., 8% CO2 with shaking at 125 rpm for 2 days. The cells were collected by centrifugation, and suspended in a suspension buffer (100 mM potassium phosphate (pH 7.4), 0.1 mM EDTA, 1 mM DTT, 20% Glycerol). The suspended product was disrupted by a polytron homogenizer (manufactured by Kinematica), and centrifuged at 9000×g for 10 min, and the supernatant was collected. The collected supernatant was cryopreserved (−80° C.) as a human CH24H lysate standard product.
For the measurement of CH24H inhibitory activity, using the human CH24H lysate prepared in Experimental Example 2, the amount of 24-HC produced from cholesterol by catalytic activity of CH24H was measured in the presence of a test compound, and compared with that measured in the absence of the test compound. That is, a test compound solution at various concentrations was mixed with a reaction buffer (50 mM potassium phosphate containing 0.1% BSA and Complete, EDTA-free, pH 7.4) and human CH24H lysate. Then, [^14C] cholesterol (53 mCi/mmol specific activity, 15 μM) was added, and CH24H reaction was performed at 37° C. for 5 hr. After completion of the reaction, a quenching solution consisting of chloroform/methanol/distilled water (2:2:1 v/v) was added, and the resulting 24-HC was extracted by shaking. The extract was applied to silica gel thin layer chromatography (ethyl acetate:toluene=4:6), and the obtained ^14C-24HC fraction was measured with BAS2500 (Fujifilm Corporation).
The inhibitory rate (%) was calculated from the ratio of radioactivity in the presence of a test compound relative to the radioactivity in the absence of the test compound.

[1] = tested on: 24-HC in the brain extract; assay: Quantification test of 24-HC in mouse brain after repeated oral administration; assay type: in vivo; settings: female C57BL/6N mice, brain 24-HC at 16 hours after the third administration, relative to control group as 100%
Protocol: Animals used were 6-week-old female C57BL/6N mice (3 mice/group). A test compound was suspended in a 0.5% aqueous methylcellulose [133-14255 WAKO] solution (1 mg/mL). The body weight of the mice was measured, and the solution was forcibly administered orally and repeatedly once a day for 3 days. At 16 hours after the third administration, half of the brain was harvested, and the amount of 24-HC was measured.
The wet weight of the brain was measured, and the brain was homogenized with 4-fold amount of saline. This solution was used as a brain extract. The 24-HC in the brain extract was extracted with an acetonitrile solution (98% acetonitrile, 1.98% methanol, 0.02% formic acid), and quantified by HPLC. The average value of 24-HC amount was calculated and the results are shown in relative values with the control group as 100%.

[2] = 30 mg/kg orally once a day for 3 days
[3] = 10 mg/kg orally once a day for 3 days

inhibition at 1 µM (human CH24H) [%]	SMILES	Brain 24-HC level relative to control (%) [1, 2] [%]	Brain 24-HC level relative to control (%) [1, 3] [%]
87	COc1ccc(CN2CCN(C(=O)c3cc(C)ccc3-c3ccncc3)CC2)cc1 [Example 3, (4-(4-methoxybenzyl)piperazin-1-yl)(5-methyl-2-(pyridin-4-yl)phenyl)methanone]		
86	c1ccc(CN2CCC(Oc3cccnc3-c3ccncc3)CC2)cc1 [Example 4, 3-((1-benzylpiperidin-4-yl)oxy)-2,4′-bipyridine]		
92	Fc1ccc(OC2CCN(Cc3ccccc3)CC2)c(-c2ccncc2)c1 [Example 5, 4-(2-((1-benzylpiperidin-4-yl)oxy)-5-fluorophenyl)pyridine]		
94	c1ccc(CN2CCC(Oc3ccccc3-c3ccncn3)CC2)cc1 [Example 15, 4-(2-((1-benzylpiperidin-4-yl)oxy)phenyl)pyrimidine]		
93	Cn1ccnc1CN1CCC(Oc2ccccc2-c2ccncc2)CC1 [Example 16, 4-(2-((1-((1-methyl-1H-imidazol-2-yl)methyl)piperidin-4-yl)oxy)phenyl)pyridine]		
83	CN(C)C(=O)CN1CCC(Oc2ccccc2-c2ccncc2)CC1 [Example 20, N,N-dimethyl-2-(4-(2-(pyridin-4-yl)phenoxy)piperidin-1-yl)acetamide]		
89	Cn1cc(CN2CCC(Oc3cccnc3-c3ccncc3)CC2)cn1 [Example 22, 3-((1-((1-methyl-1H-pyrazol-4-yl)methyl)piperidin-4-yl)oxy)-2,4′-bipyridine]	77	
59	COc1ccc(CN2CCN(S(=O)(=O)c3ccc(F)cc3-c3ccncc3)CC2)cc1 [Example 29, 1-((4-fluoro-2-(pyridin-4-yl)phenyl)sulfonyl)-4-(4-methoxybenzyl)piperazine]		
91	FC1(F)CN(Cc2ccccc2)CCC1Oc1ccccc1-c1ccncn1 (stereo not shown) [Example 34, 4-(2-((1-benzyl-3,3-difluoropiperidin-4-yl)oxy)phenyl)pyrimidine]		
84	O=C(CN1CCC(Oc2cccnc2-c2ccncc2)CC1)N1CCOCC1 [Example 38, 2-(4-(2,4′-bipyridin-3-yloxy)piperidin-1-yl)-1-(morpholin-4-yl)ethanone]		
88	Cn1cc(CN2CCC(Oc3nccnc3-c3ccncc3)CC2)cn1 [Example 40, 2-((1-((1-methyl-1H-pyrazol-4-yl)methyl)piperidin-4-yl)oxy)-3-(pyridin-4-yl)pyrazine]		84
90	c1cnc(-c2ccncc2)c(OC2CCN(Cc3cscn3)CC2)c1 [Example 47, 3-((1-(1,3-thiazol-4-ylmethyl)piperidin-4-yl)oxy)-2,4′-bipyridine]		75
85	CCN(CC)C(=O)CN1CCC(Oc2cccnc2-c2ccncc2)CC1 [Example 49, 2-(4-(2,4′-bipyridin-3-yloxy)piperidin-1-yl)-N,N-diethylacetamide]		
79	CN(C)C(=O)CN1CCC(Oc2nccnc2-c2ccncc2)C(F)(F)C1 (stereo not shown) [Example 54, 2-(3,3-difluoro-4-((3-(pyridin-4-yl)pyrazin-2-yl)oxy)piperidin-1-yl)-N,N-dimethylacetamide]		73
53	O=C1CN(Cc2ccc(F)cc2)CCN1Cc1cccnc1-c1ccncc1 [Example 55, 1-(2,4′-bipyridin-3-ylmethyl)-4-(4-fluorobenzyl)piperazin-2-one]		
89	c1ccc(CN2CCC(Oc3cccnc3-c3ccncc3)C2)cc1 (stereo not shown) [Example 61, 3-((1-benzylpyrrolidin-3-yl)oxy)-2,4′-bipyridine]		
92	COc1ccc(S(=O)(=O)N2CCC(Oc3cccnc3-c3ccncc3)C2)cc1 (stereo not shown) [Example 64, 3-((1-((4-methoxyphenyl)sulfonyl)pyrrolidin-3-yl)oxy)-2,4′-bipyridine]		
80	O=C(C1CC1)N1CCC(Oc2cccnc2-c2ccncc2)CC1 [Example 67, (4-(2,4′-bipyridin-3-yloxy)piperidin-1-yl)(cyclopropyl)methanone]		
89	Cn1cc(S(=O)(=O)N2CCC(Oc3cccnc3-c3ccncc3)C2)cn1 (stereo not shown) [Example 71, 3-((1-((1-methyl-1H-pyrazol-4-yl)sulfonyl)pyrrolidin-3-yl)oxy)-2,4′-bipyridine]	86	
88	COc1ccc(CC(=O)N2CCC(Oc3ccccc3-c3ccncn3)CC2)cc1 [Example 74, 2-(4-methoxyphenyl)-1-(4-(2-(pyrimidin-4-yl)phenoxy)piperidin-1-yl)ethanone]		
87	Cn1cc(S(=O)(=O)N2CCC(Oc3cc(F)ccc3-c3ccncn3)C2)cn1 (stereo not shown) [Example 84, 4-(4-fluoro-2-((1-((1-methyl-1H-pyrazol-4-yl)sulfonyl)pyrrolidin-3-yl)oxy)phenyl)pyrimidine]		
84	O=S(=O)(N1CCOCC1)N1CCC(Oc2cccnc2-c2ccncc2)C1 (stereo not shown) [Example 85, 3-((1-(morpholin-4-ylsulfonyl)pyrrolidin-3-yl)oxy)-2,4′-bipyridine]		
82	CCS(=O)(=O)N1CCC(Oc2cc(F)ccc2-c2ccncc2)C1 (stereo not shown) [Example 88, 4-(2-((1-(ethylsulfonyl)pyrrolidin-3-yl)oxy)-4-fluorophenyl)pyridine]		
89	O=S(=O)(c1ccc(F)cc1)N1CCC(Oc2nccnc2-c2ccncc2)C1 (stereo not shown) [Example 110, 2-((1-((4-fluorophenyl)sulfonyl)pyrrolidin-3-yl)oxy)-3-(pyridin-4-yl)pyrazine]		
94	O=S(=O)(c1ccccc1)N1CCC(Oc2cccnc2-c2ccncc2)C1 (stereo not shown) [Example 120, 3-((1-(phenylsulfonyl)pyrrolidin-3-yl)oxy)-2,4′-bipyridine]		
95	c1ccc(CN2CCC(Oc3cccnc3-c3ccncc3)CC2)nc1 [Example 124, 3-((1-(pyridin-2-ylmethyl)piperidin-4-yl)oxy)-2,4′-bipyridine]		
